Assay: log P (partition coefficient in 1-octanol and water)
Type: physicochemical
Settings: 1-octanol/water, pH 7.4
Text: Emulsions of the invention are useful for formulating lipophilic pharmacological agents (LPAs) for in vivo use. Such LPAs include, but are not limited to, vitamins (e.g. vitamins A, D, E and K and their salts/esters, such as α-tocopherol succinate), carotenoids (e.g. β-carotene), fatty acids (e.g. arachidonic acid, ecosapentaenoic acid docosahexaenoic acid), pyrimidines (e.g. 5-hydroxy-4,6-dimethyl-2-(6-phenylhexyl)aminopyrimidine), ansamitocins, angiotensin II receptor antagonists (e.g. candesartan cilexetil), and immunopotentiators (e.g. muramyl dipeptides).
For example, to deliver a 25 μg dose in a typical oil-in-water emulsion would require the agonist to have a squalene solubility of 10 mg/ml, which is about 2.5× higher than can be achieved.

- logP: 7.5
SMILES: Cc1ccc2c(c1)nc(N)c1ncc(CCc3ccc(OCCC(C)C)cc3C)cc12 [compound ‘A’]

— patent publication US10286056B2, “Adjuvant nanoemulsions with crystallisation inhibitors” (GLAXOSMITHKLINE BIOLOGICALS S.A., priority 2011, dated 2019)
